Measurements published in paper PMC8930988, “The NSAID glafenine rescues class 2 CFTR mutants via cyclooxygenase 2 inhibition of the arachidonic acid pathway” (Scientific Reports, 2022).
Where a name gives a salt, the structure may show the parent alone.

Molecular target: T1, cyclooxygenase 2 (COX2) (Homo sapiens, UniProt P35354)
T1 construct: gene PTGS2; recombinant COX-2 (kit)
T1 sequence (P35354 18-604): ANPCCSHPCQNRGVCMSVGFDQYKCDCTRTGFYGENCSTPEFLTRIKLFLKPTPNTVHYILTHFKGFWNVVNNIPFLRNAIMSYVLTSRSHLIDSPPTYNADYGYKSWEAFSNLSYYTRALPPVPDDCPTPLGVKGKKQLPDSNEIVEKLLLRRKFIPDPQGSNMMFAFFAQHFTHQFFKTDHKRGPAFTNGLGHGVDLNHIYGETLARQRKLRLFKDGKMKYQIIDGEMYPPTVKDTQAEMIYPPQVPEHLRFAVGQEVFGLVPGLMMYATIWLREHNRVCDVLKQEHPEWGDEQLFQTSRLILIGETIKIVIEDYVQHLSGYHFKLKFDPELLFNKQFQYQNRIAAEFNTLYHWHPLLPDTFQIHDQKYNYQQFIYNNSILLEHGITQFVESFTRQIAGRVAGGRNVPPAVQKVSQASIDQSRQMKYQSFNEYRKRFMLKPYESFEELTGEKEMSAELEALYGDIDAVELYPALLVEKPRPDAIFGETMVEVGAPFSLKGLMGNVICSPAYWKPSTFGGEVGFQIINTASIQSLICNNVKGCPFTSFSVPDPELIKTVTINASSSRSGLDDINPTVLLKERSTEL
Experiment: COX activity assay with recombinant enzyme, […] compound (Fig. 4E)
Format: biochemical

## O=C(OCC(O)CO)c1ccccc1Nc1ccnc2cc(Cl)ccc12 (stereo not shown) [compound 37, 2,3-dihydroxypropyl 2-[(7-chloroquinolin-4-yl)amino] benzoate; hydrochloride]
  COX activity assay with recombinant enzyme, 10 μM compound (Fig. 4E): COX2 inhibition is required for glafenine-mediated CFTR correction and that glafenine interacts directly with COX2
